The values below come from paper PMC12670426 (Journal of Medicinal Chemistry, 2025).

Experiment [1] has as its target T1, human galectin-1 (Gal-1, full length) (Homo sapiens, UniProt P09382).
T1 construct: Gal-1 is a prototype galectin consisting of a single CRD and was used in full length; 6xHis tag with TEV protease site (N, cleaved yes); made in house; host or cells: BL21 Escherichia coli (pET-15b)
Kind of experiment: Competitive fluorescence polarization assay, Gal-1. It is filed as binding. The protocol: (§1) Our investigation of the structure–activity relationship of N-aryl-N-lactosylamides started with an initial screening of substituted acetanilides (Table ). These compounds can be readily synthesized from a wide range of commercially available substituted anilines. Affinity was evaluated using a fluorescence polarization assay, which enables reliable determination of dissociation constants (K d) between small molecules and galectins. All inhibitors in this series were tested against the two most common human galectins: Gal-1 and Gal-3. Gal-1 is a prototype galectin consisting of a single CRD and was used in full length. In the case of Gal-3, which consists of the C-terminal CRD and N-terminal unfolded region, only the C-terminal domain was used (Gal-3C). Affinities were compared to methyl β-lactoside (β-LacOMe) as a baseline.
(§2) Fluorescence polarization experiments for determining inhibitor affinities were performed using the same instrumentation and settings as described for the direct binding experiments. […] The galectin–probe mixture was subsequently added using a Certus Flex liquid handler (Fritz Gyger AG, Switzerland) to reach a final volume of 5 μL. Anisotropy was measured after 30–60 min incubation at 25 °C. Inhibitor dissociation constants (K d) were calculated using Wang’s exact cubic model for competitive binding implemented in the BindCurve package. Protein and probe concentrations used in these competitive experiments are provided in the Supporting Information.
(§3) Competitive binding was modeled by Wang’s exact cubic model,3 which is written as […]
(§4) r = rmin + (rmax − rmin) 3 (6) […]
(§5) where r, rmin and rmax have the same meaning as in Equation 1. The coefficients a, b, and c are […]
(§6) a = Kd∗ + Kd + [L∗]T + [L]T − [R]T (7) b = Kd∗([L]T − [R]T) + Kd([L∗]T − [R]T) + Kd∗ Kd (8) […]
(§7) where Kd∗ is the dissociation constant of the probe, Kd is the dissociation constant of the […]
(§8) the unlabeled ligand, and [R]T is the total concentration of the receptor. The angle θ is defined […]
(§9) In the competitive binding experiments, the values of [L∗]T, [R]T and Kd∗ are known and [L]T is titrated. The values of minimal and maximal anisotropy rmin and rmax were fixed during fitting at the values of the minimal and maximal asymptotes obtained from the direct binding experiments. The value of Kd was calculated as the only unfixed parameter in the model.
(§10) Experimental constants used for the competitive fluorescence polarization experiments are […]
(§11) Table S2. Experimental constants used for competitive fluorescence polarization experiments. […]
Background: In fluorescence polarisation assays a small probe gives low polarisation when free and higher when bound to something large.

Experiment [2] concerns the target T2, human galectin-3C (Gal-3C, C-terminal CRD of galectin-3) (Homo sapiens, UniProt P17931).
T2 construct: only the C-terminal domain was used (Gal-3C); 6xHis tag with TEV protease site (N, cleaved yes); made in house; host or cells: BL21 Escherichia coli (pET-15b)
Kind of experiment: Competitive fluorescence polarization assay, Gal-3C. The experiment is classed as binding. As to the method:
as §1, §2, §3, §4, §5, §6, §7, §8, §9, §10, §11

The mark [3] stands for this setting: CSV supplement, unrounded mean, read-out: Gal1_IC50_mean_uM.
Where [4] appears, read: CSV supplement, unrounded mean, read-out: Gal1_Kd_mean_uM.
Where [5] appears, read: competitive fluorescence polarization, mean ± SD, read-out: Kd Gal-1.
Where [6] appears, read: four-parameter logistic model, mean ± SD, read-out: IC50 Gal-1.
The mark [7] stands for this setting: CSV supplement, unrounded mean, read-out: Gal3C_IC50_mean_uM.
Where [8] appears, read: CSV supplement, unrounded mean, read-out: Gal3C_Kd_mean_uM.
Setting [9] is: competitive fluorescence polarization, mean ± SD, read-out: Kd Gal-3C.
The mark [10] stands for this setting: four-parameter logistic model, mean ± SD, read-out: IC50 Gal-3C.

The structures appear in SMILES notation. Like-named read-outs stand apart in the source and are kept apart here.

T2 sequence (P17931 118-248 limits assumed): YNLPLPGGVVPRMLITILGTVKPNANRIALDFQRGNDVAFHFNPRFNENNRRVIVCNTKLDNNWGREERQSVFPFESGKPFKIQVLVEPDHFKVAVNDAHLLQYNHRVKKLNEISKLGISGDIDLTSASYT
T1 sequence (P09382 2-135): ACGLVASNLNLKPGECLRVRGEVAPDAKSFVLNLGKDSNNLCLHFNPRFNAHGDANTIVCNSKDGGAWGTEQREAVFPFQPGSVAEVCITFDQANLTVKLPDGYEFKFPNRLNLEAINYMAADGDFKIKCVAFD

Regarding `CC(=O)N(c1ccc(F)c(F)c1)[C@@H]1O[C@H](CO)[C@@H](O[C@@H]2O[C@H](CO)[C@H](O)[C@H](O)[C@H]2O)[C@H](O)[C@H]1O` [Compound 3h, N-[4-O-(β-D-Galactopyranosyl)-β-D-glucopyranosyl]-N-(3,4-difluorophenyl)acetamide], the IC50 was 597 µM in experiment [1] (setting [3]), 600 ± 20 µM in experiment [1] (setting [6]), 284 µM in experiment [2] (setting [7]) and 280 ± 100 µM in experiment [2] (setting [10]). For the same compound, the Kd in experiment [1] (setting [4]) is 399 µM; in experiment [1] (setting [5]), 400 ± 20 µM; in experiment [2] (setting [8]), 127 µM; in experiment [2] (setting [9]) it was 130 ± 80 µM.

As to `CC(=O)N(c1cc(F)c(F)c(F)c1)[C@@H]1O[C@H](CO)[C@@H](O[C@@H]2O[C@H](CO)[C@H](O)[C@H](O)[C@H]2O)[C@H](O)[C@H]1O` [Compound 3i, N-[4-O-(β-D-Galactopyranosyl)-β-D-glucopyranosyl]-N-(3,4,5-trifluorophenyl)acetamide], the IC50 amounted to 565 µM in experiment [1] (setting [3]), 570 ± 10 µM in experiment [1] (setting [6]), 328 µM in experiment [2] (setting [7]) and 330 ± 5 µM in experiment [2] (setting [10]). In addition, the Kd is 314 µM in experiment [1] (setting [4]), 310 ± 90 µM in experiment [1] (setting [5]), 111 µM in experiment [2] (setting [8]) and 110 ± 8 µM in experiment [2] (setting [9]).

As to `CC(=O)N(c1ccc(Cl)cc1)[C@@H]1O[C@H](CO)[C@@H](O[C@@H]2O[C@H](CO)[C@H](O)[C@H](O)[C@H]2O)[C@H](O)[C@H]1O` [Compound 3j, N-[4-O-(β-D-Galactopyranosyl)-β-D-glucopyranosyl]-N-(4-chlorophenyl)acetamide], the IC50 was 654 µM in experiment [1] (setting [3]), 650 ± 30 µM in experiment [1] (setting [6]), 363 µM in experiment [2] (setting [7]) and 360 ± 10 µM in experiment [2] (setting [10]). In addition, the Kd in experiment [1] (setting [4]) was 363 µM; in experiment [1] (setting [5]), 360 ± 30 µM; in experiment [2] (setting [8]), 113 µM; in experiment [2] (setting [9]), 110 ± 10 µM.

Take `CC(=O)N(c1ccc(Cl)c(Cl)c1)[C@@H]1O[C@H](CO)[C@@H](O[C@@H]2O[C@H](CO)[C@H](O)[C@H](O)[C@H]2O)[C@H](O)[C@H]1O` [Compound 3k, N-[4-O-(β-D-Galactopyranosyl)-β-D-glucopyranosyl]-N-(3,4-dichlorophenyl)acetamide]: the IC50 was determined as 659 µM in experiment [1] (setting [3]), 660 ± 8 µM in experiment [1] (setting [6]), 346 µM in experiment [2] (setting [7]) and 350 ± 40 µM in experiment [2] (setting [10]). For the same compound, the Kd in experiment [1] (setting [4]) is 376 µM; in experiment [1] (setting [5]) it was 380 ± 60 µM; in experiment [2] (setting [8]) it was 112 µM; in experiment [2] (setting [9]), 110 ± 20 µM.

Take `CC(=O)N(c1ccc(I)cc1)[C@@H]1O[C@H](CO)[C@@H](O[C@@H]2O[C@H](CO)[C@H](O)[C@H](O)[C@H]2O)[C@H](O)[C@H]1O` [Compound 3l, N-[4-O-(β-D-Galactopyranosyl)-β-D-glucopyranosyl]-N-(4-iodophenyl)acetamide]: the IC50 in experiment [1] (setting [3]) stood at 718 µM; in experiment [1] (setting [6]), 720 ± 40 µM; in experiment [2] (setting [7]), 355 µM; in experiment [2] (setting [10]) it was 360 ± 20 µM. Further, the Kd worked out at 396 µM in experiment [1] (setting [4]), 400 ± 20 µM in experiment [1] (setting [5]), 113 µM in experiment [2] (setting [8]) and 110 ± 20 µM in experiment [2] (setting [9]).

Turning to `COc1ccc(N(C(C)=O)[C@@H]2O[C@H](CO)[C@@H](O[C@@H]3O[C@H](CO)[C@H](O)[C@H](O)[C@H]3O)[C@H](O)[C@H]2O)cc1` [Compound 3m, N-[4-O-(β-D-Galactopyranosyl)-β-D-glucopyranosyl]-N-(4-methoxyphenyl)acetamide], the IC50 stood at 973 µM in experiment [1] (setting [3]), 970 ± 50 µM in experiment [1] (setting [6]), 346 µM in experiment [2] (setting [7]) and 350 ± 30 µM in experiment [2] (setting [10]). In addition, the Kd in experiment [1] (setting [4]) came out at 661 µM; in experiment [1] (setting [5]), 660 ± 70 µM; in experiment [2] (setting [8]) it was 137 µM; in experiment [2] (setting [9]) it was 140 ± 50 µM.

With `COc1ccc(N(C(C)=O)[C@@H]2O[C@H](CO)[C@@H](O[C@@H]3O[C@H](CO)[C@H](O)[C@H](O)[C@H]3O)[C@H](O)[C@H]2O)cc1OC` [Compound 3n, N-[4-O-(β-D-Galactopyranosyl)-β-D-glucopyranosyl]-N-(3,4-dimethoxyphenyl)acetamide], the IC50 turned out to be 678 µM in experiment [1] (setting [3]), 680 ± 10 µM in experiment [1] (setting [6]), 284 µM in experiment [2] (setting [7]) and 280 ± 10 µM in experiment [2] (setting [10]). Moreover, the Kd turned out to be 364 µM in experiment [1] (setting [4]), 360 ± 40 µM in experiment [1] (setting [5]), 88.9 µM in experiment [2] (setting [8]) and 89 ± 20 µM in experiment [2] (setting [9]).

Take `COc1cc(N(C(C)=O)[C@@H]2O[C@H](CO)[C@@H](O[C@@H]3O[C@H](CO)[C@H](O)[C@H](O)[C@H]3O)[C@H](O)[C@H]2O)cc(OC)c1OC` [Compound 3o, N-[4-O-(β-D-Galactopyranosyl)-β-D-glucopyranosyl]-N-(3,4,5-trimethoxyphenyl)acetamide]: the IC50 in experiment [1] (setting [3]) was 461 µM; in experiment [1] (setting [6]), 460 ± 80 µM; in experiment [2] (setting [7]), 238 µM; in experiment [2] (setting [10]) it was 240 ± 40 µM. The Kd in experiment [1] (setting [4]) was found to be 243 µM; in experiment [1] (setting [5]), 240 ± 40 µM; in experiment [2] (setting [8]), 76.2 µM; in experiment [2] (setting [9]), 76 ± 20 µM. Also, in experiment [1] (compared to 3a), the “improvement in affinity toward Gal-1 compared to 3a” value is 2 fold.

For `CC(=O)N(c1ccc2c(c1)OCO2)[C@@H]1O[C@H](CO)[C@@H](O[C@@H]2O[C@H](CO)[C@H](O)[C@H](O)[C@H]2O)[C@H](O)[C@H]1O` [Compound 3p, N-[4-O-(β-D-Galactopyranosyl)-β-D-glucopyranosyl]-N-(1,3-benzodioxol-5-yl)acetamide], the IC50 in experiment [1] (setting [3]) stood at 981 µM; in experiment [1] (setting [6]), 980 ± 10 µM; in experiment [2] (setting [7]), 346 µM; in experiment [2] (setting [10]) it was 350 ± 10 µM. In addition, the Kd in experiment [1] (setting [4]) amounted to 545 µM; in experiment [1] (setting [5]), 540 ± 30 µM; in experiment [2] (setting [8]), 115 µM; in experiment [2] (setting [9]), 110 ± 20 µM.

As for `CCOC(=O)c1ccccc1N(C(C)=O)[C@@H]1O[C@H](CO)[C@@H](O[C@@H]2O[C@H](CO)[C@H](O)[C@H](O)[C@H]2O)[C@H](O)[C@H]1O` [Compound 3q, N-[4-O-(β-D-Galactopyranosyl)-β-D-glucopyranosyl]-N-[2-(ethylcarboxy)phenyl]acetamide], the IC50 worked out at 773 µM in experiment [1] (setting [3]), 770 ± 70 µM in experiment [1] (setting [6]), 242 µM in experiment [2] (setting [7]) and 240 ± 5 µM in experiment [2] (setting [10]). Moreover, the Kd in experiment [1] (setting [4]) was determined as 411 µM; in experiment [1] (setting [5]), 410 ± 20 µM; in experiment [2] (setting [8]), 80.2 µM; in experiment [2] (setting [9]) it was 80 ± 9 µM.

On to `CC(=O)N(c1cccc(C(=O)O)c1)[C@@H]1O[C@H](CO)[C@@H](O[C@@H]2O[C@H](CO)[C@H](O)[C@H](O)[C@H]2O)[C@H](O)[C@H]1O` [Compound 3r, N-[4-O-(β-D-Galactopyranosyl)-β-D-glucopyranosyl]-N-(3-carboxyphenyl)acetamide], for which the IC50 turned out to be 1400 µM in experiment [1] (setting [3]), 1400 ± 100 µM in experiment [1] (setting [6]), 127 µM in experiment [2] (setting [7]) and 130 ± 20 µM in experiment [2] (setting [10]). Moreover, the Kd in experiment [1] (setting [4]) turned out to be 858 µM; in experiment [1] (setting [5]), 860 ± 30 µM; in experiment [2] (setting [8]) it was 40.9 µM; in experiment [2] (setting [9]), 41 ± 10 µM. In addition, the “improvement in affinity toward Gal-3C compared to 3a” value in experiment [2] (compared to unsubstituted phenyl derivative 3a) amounted to 2 fold. For the same compound, the “selectivity for Gal-3C over Gal-1” value in experiment [2] (ratio Kd (Gal-1)/Kd (Gal-3C)) was determined as 20 fold.

Consider `CC(C)C(=O)N(c1cccc(C(=O)O)c1)[C@@H]1O[C@H](CO)[C@@H](O[C@@H]2O[C@H](CO)[C@H](O)[C@H](O)[C@H]2O)[C@H](O)[C@H]1O` [Compound 3s, N-[4-O-(β-D-Galactopyranosyl)-β-D-glucopyranosyl]-N-(3-carboxyphenyl)-2-methylpropanamide], for which the IC50 in experiment [1] (setting [3]) was found to be 1800 µM; in experiment [1] (setting [6]), 1800 ± 200 µM; in experiment [2] (setting [7]) it was 113 µM; in experiment [2] (setting [10]) it was 110 ± 0.2 µM. The Kd worked out at 1000 µM in experiment [1] (setting [4]), 1000 ± 300 µM in experiment [1] (setting [5]), 39.5 µM in experiment [2] (setting [8]) and 39 ± 4 µM in experiment [2] (setting [9]).
